Patent publication US8716493B2, “Multicyclic compounds and the use thereof” (Cephalon, Inc., priority 2000, dated 2014)

Legend:
[1] = molecular target: T1, human VEGFR2 cytoplasmic domain (Homo sapiens, UniProt P35968); assay: Measurement of VEGFR2 kinase enzymatic activity (time-resolved fluorescence, PLC-γ/GST substrate); assay type: biochemical; settings: Table 5; for VEGFR2 % @ 300 nM: percent inhibition at 300 nM
T1 construct: recombinant human baculovirus-expressed human VEGFR2 cytoplasmic domain; host or cells: baculovirus-expressed
T1 sequence (P35968 786-1356 limits assumed): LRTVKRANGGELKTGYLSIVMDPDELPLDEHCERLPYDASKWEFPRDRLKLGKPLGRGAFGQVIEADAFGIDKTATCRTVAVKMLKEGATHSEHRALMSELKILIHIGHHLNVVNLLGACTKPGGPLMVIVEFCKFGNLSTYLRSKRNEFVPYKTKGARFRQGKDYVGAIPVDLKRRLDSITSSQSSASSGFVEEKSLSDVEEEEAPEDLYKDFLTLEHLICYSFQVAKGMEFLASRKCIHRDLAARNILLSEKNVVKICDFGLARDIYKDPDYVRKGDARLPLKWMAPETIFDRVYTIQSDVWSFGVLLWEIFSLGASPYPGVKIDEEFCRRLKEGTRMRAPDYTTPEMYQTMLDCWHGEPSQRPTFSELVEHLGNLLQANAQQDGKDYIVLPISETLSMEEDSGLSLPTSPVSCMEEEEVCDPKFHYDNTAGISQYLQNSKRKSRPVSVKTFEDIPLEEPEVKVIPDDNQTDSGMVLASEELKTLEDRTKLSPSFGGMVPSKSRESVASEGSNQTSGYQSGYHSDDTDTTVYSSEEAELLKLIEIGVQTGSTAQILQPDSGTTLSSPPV
Method: A 96-well FluoroNUNC MaxiSorp plate was coated with 100 μL/well of recombinant human PLC-γ/GST substrate solution at a concentration of 40 μg/mL in Tris-buffered saline (TBS). The VEGFR2 activity was assayed in a 100 μL assay mixture containing 50 mM HEPES (pH 7.4), 30 μM ATP, 10 mM MnCl2, 0.1% BSA, 2% DMSO, and 150 ng/mL recombinant human baculovirus-expressed human VEGFR2 cytoplasmic domain (prephosphorylated for 60 min at 4° C. in the presence of 30 μM ATP and 10 mM MnCl2 prior to use). The kinase reaction was allowed to proceed at 37° C. for 15 min. The europium-labeled anti-phosphotyrosine detection antibody was added at 1:5000 dilution in block buffer (3% BSA in TBST). After 1 hour of incubation at 37° C., 100 μL of enhancement solution (Wallac #1244-105) was added and the plate was gently agitated. After 5 min, the time-resolved fluorescence of the resulting solution was measured using the BMG PolarStar (Model #403) using excitation and emission wavelengths of 340 nm and 615 nm, respectively, a collection delay of 400 μsec and an integration time of 400 μsec.
(§1) Single-point inhibition data were calculated by comparing PARP, VEGFR2, or MLK3 activity in the presence of inhibitor to activity in the presence of DMSO only. Inhibition curves for compounds were generated by plotting percent inhibition versus log10 of the concentration of compound. IC50 values were calculated by nonlinear regression using the sigmoidal dose-response (variable slope) equation in GraphPad Prism as follows: y=bottom+(top−bottom)/(1+10^(log IC50^−x)*Hillslope) where y is the % activity at a given concentration of compound, x is the logarithm of the concentration of compound, bottom is the % inhibition at the lowest compound concentration tested, and top is the % inhibition at the highest compound concentration examined. The values for bottom and top were fixed at 0 and 100, respectively. IC50 values were reported as the average of at least three separate determinations.
The following Examples 5 to 10 present PARP, VEGFR2, and MLK3 inhibiting data for compounds of the present invention. […] For some compounds, inhibiting data is presented as percent inhibition at a specified concentration. Compounds are tabulated together with compound number, substituents, and enzyme inhibition data.

[2] = molecular target: T2, MLK3 (Homo sapiens, UniProt Q16584); assay: Measurement of MLK3 enzymatic activity (32P phosphorylation of myelin basic protein); assay type: biochemical; settings: percent inhibition at 1 μM; Table 5
T2 construct: 2 μg/mL of baculoviral human GST-MLK1 kinase domain; GST (N); host or cells: baculovirus expression
T2 sequence (Q16584 117-379 limits assumed): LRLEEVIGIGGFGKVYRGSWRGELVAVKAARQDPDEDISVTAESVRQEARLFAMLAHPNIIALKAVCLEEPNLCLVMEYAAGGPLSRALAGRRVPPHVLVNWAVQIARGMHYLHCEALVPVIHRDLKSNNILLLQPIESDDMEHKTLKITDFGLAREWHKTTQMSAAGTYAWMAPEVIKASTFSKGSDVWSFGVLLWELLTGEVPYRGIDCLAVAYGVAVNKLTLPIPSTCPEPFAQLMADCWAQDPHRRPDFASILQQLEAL
Method: The activity assay for MLK3 was performed in Millipore Multiscreen plates. Each 50 μL assay mixture contained 50 mM HEPES (pH 7.0), 1 mM EGTA, 10 mM MgCl2, 1 mM DTT, 25 mM β-glycerophosphate, 100 μM ATP, 1 μCi [γ-^32P]ATP, 0.1% BSA, 500 μg/mL myelin basic protein, 2% DMSO, various concentrations of test compounds, and 2 μg/mL of baculoviral human GST-MLK1 kinase domain. Samples were incubated for 15 min at 37° C. The reaction was stopped by adding ice-cold 50% TCA and the proteins were allowed to precipitate for 30 min at 4° C.
as §1
For some compounds, inhibiting data is presented as percent inhibition at a specified concentration. Compounds are tabulated together with compound number, substituents, and enzyme inhibition data.

[3] = test system: mouse MCA occlusion (suture thread method); settings: mice; intracerebroventricular administration; two hour MCA occlusion; cited from earlier work
[4] = test system: suture occlusion model of focal ischemia; settings: rat; 10 mg/kg; cited from earlier work
[5] = test system: rat model of focal cerebral ischemia; settings: i.p. 10 mg/kg two hours prior to and two hours after initiation of ischemia; cited from earlier work

Row | Molecule | MLK3 % @ 1 μM [2] [%] | IC50 [1] [nM] | also measured
1 | 9-Ethyl-8-propyl-5,7-dihydropyrrolo[3,4-c]carbazole-5(6H), 7(10H)-dione [Compound 11c] | 46 | – | VEGFR2 % @100 nM ([1]; percent inhibition at 100 nM): 0% @100 nM
2 | NC(=O)c1cccc(N)c1 [Compound 3-AB, 3-aminobenzamide] | – | – | decrease in infarct volume [3]: 47%; infarct volume [4]: significantly reduced
3 | O=C1NCc2c3c(c4[nH]c5ccccc5c4c21)CCC3 [Compound 11a, 5,7,8,9,10,11-Hexahydrocyclopent[a]pyrrolo[3,4-c]carbazole-5(6H)-one] | – | 477 | –
4 | O=C1NC(=O)c2c1c1c(c3[nH]c4ccccc4c23)CCCC1 [Compound 11b, 5,7,9,10,11,12-Hexahydrocyclohexano[a]pyrrolo[3,4-c]carbazole-5(6H), 7(8H)-dione] | 26 | 698 | –
5 | Cn1c2ccccc2c2c3c(c4c(c21)CCCC4)C(=O)NC3=O [Compound 11d] | 52 | 778 | –
6 | O=C1NC(=O)c2c1c1ccccc1c1[nH]c3ccccc3c21 [Compound 11e] | 35 | 166 | –
7 | O=C1NC(=O)c2c1c1c(c3[nH]c4ccccc4c23)CCO1 [Compound 11f, 5,7,10,11-Tetrahydrofuran[a-3,2]pyrrolo[3,4-c]carbazole-5(6H), 7(9H)-dione] | 62 | – | VEGFR2 % @ 300 nM [1]: 3%
8 | O=C1NC(=O)c2c1c1occc1c1[nH]c3ccccc3c21 [Compound 11g, 5,7-Dihydrofuran[a-3,2]pyrrolo[3,4-c]carbazole-5(6H), 7(11H)-dione] | 16 | – | VEGFR2 % @ 300 nM [1]: 8%
9 | O=C1NC(=O)c2c1c1cnccc1c1[nH]c3ccccc3c21 [Compound 12a] | 74 | 235 | –
10 | O=C1NCCc2c(OCCCCN3CCCCC3)cccc21 [DPQ, 3,4-dihydro-5-[4-(1-piperidinyl)butoxy]-1(2H)-isoquinolinone] | – | – | reduction in infarct volume [5]: 54%
